Results as given in US6465646B1, “1-alkoxy and 1-acyloxy substituted cyclohex-1-ene compounds and sulfur and 1-alkoxycarbonyl analogs having retinoid-like biological activity” (Allergan, Inc., priority 1999, dated 2002).

Test system: ornithine decarboxylase (ODC)
Assay: Ornithine decarboxylase (ODC) assay: inhibition of TPA induction of ODC activity
Format: cell-based
Source text: A classic measure of retinoic acid activity involves measuring the effects of refinoic acid on ornithine decarboxylase (ODC). The original work on the correlation between retinoic acid and decrease in cell proliferation was done by Verma & Boutwell, Cancer Research, 1977,37, 2196-2201. That reference discloses that ornithine decarboxylase activity increased precedent to polyamine biosynthesis. It has been established elsewhere that increases in polyamine synthesis can be correlated or associated with cellular proliferation. Thus, if ODC activity could be inhibited, cell hyperproliferation could be modulated. Although all cases for ODC activity increases are unknown, it is known that 12-O-tetradecanoylphorbol-13-acetate (TPA) induces ODC activity. Retinoic acid inhibits this induction of ODC activity by TPA. […] “IC60” is that concentration of the test compound which causes 60% inhibition in the ODC assay. By analogy, “IC80”, for example, is that concentration of the test compound which causes 80% inhibition in the ODC assay.

IC80 (footnote 1: IC80, read-out: IC80 (concentration of the test compound which causes 80% inhibition in the ODC assay)) [nM] | IC60 (concentration of the test compound which causes 60% inhibition in the ODC assay) (footnote 2: IC60) | Structure (SMILES)
0.46 |  | CCOC(=O)c1ccc(C#C/C=C/C2=C(O[Si](C)(C)C)CCCC2(C)C)cc1 [Compound 1, Ethyl (±)-(E)-4-(4-(6,6-dimethyl-2-(trimethylsily)oxycyclohex-1-enyl)but-3-en-1-yn-yl)benzoate]
 | 0.3^2 nanomolar | CCOC(=O)c1ccc(C#C/C=C/C2=C(C(=O)OC)CCCC2(C)C)cc1 [Compound 6, Ethyl (E)-4-(4-(6-Carbomethoxy-2,2-dimethylcyclohex-1-enyl)but-3-en-1-yn-yl)benzoate]
